Reference: US10103402B2, “Liquid phenothiazine catholytes for non-aqueous redox flow batteries” (University of Kentucky Research Foundation, priority 2015, dated 2018)

Experiments:
[1] = cited from earlier work
[2] = Cyclic voltammetry, half-wave oxidation potentials; assay type: physicochemical; details: for E1/2^+/0 vs. Li^+/0, LiBF4 in PC: 10 mM analyte in 0.5M LiBF4/PC, 100 mV/s; for Oxidation potential higher than EPT, LiPF6/EC/EMC: difference of E1/2^+/0 to EPT in LiPF6/EC/EMC; for Oxidation potential higher than EPT, TBA-PF6/DCM: difference of E1/2^+/0 to EPT in TBA-PF6/DCM
Description: The compounds of the present invention provide for components of a redox flow battery system, particularly as part of a catholyte composition. The studies described herein detail their effectiveness for such. The position and reversibility of redox events was determined by cyclic voltammetry (CV), performed in dichloromethane (DCM) containing 0.1 M tetra(n-butyl)ammonium hexafluorophosphate (TBA-PF6) (FIG. 7), in EC/EMC (3:7) containing 1.2 M LiPF6 (FIG. 2), or in propylene carbonate (PC) containing 0.5 M LiBF4 (FIG. 2). Both compounds show reversible first oxidations in all electrolytes. In TBA-PF6/DCM, MEPT (E1/2^+/0=0.30 V vs. Cp2Fe^+/0) and MEEPT (E1/2^+/0=0.29 V vs. Cp2Fe^+/0) oxidize at 0.03 and 0.02 V higher, respectively, than EPT (Table 1). In contrast, though the oxidation potentials of the new compounds were still higher than that of EPT in LiPF6/EC/EMC, a larger difference was observed: MEPT (E1/2^+/0=3.56 V vs. Li^+/0) and MEEPT (E1/2^+/0=3.60 V vs. Li^+/0) oxidized at […] higher, respectively, than EPT (Table 1). The increase in oxidation potential in the lithium-based electrolytes can be attributed to the coordination, through the oligoether side chain, of MEPT to Li^+, a characteristic that is even more pronounced in the case of MEEPT.
(§1) Cyclic voltammetry (CV) experiments were performed using a CH Instruments 600D potentiostat using a three-electrode system in either 100 mM TBAPF6 in anhydrous DCM or in 1.2 M LiPF6 in ethylene carbonate (EC)/ethyl methyl carbonate (EMC) (3:7 wt. ratio) containing […] redox shuttle. Cyclic voltammograms were also recorded in 0.5 M LiBF4 in propylene carbonate (PC) containing 10 mM analyte. Glassy carbon was used as the working electrode, platinum wire as the counter electrode and either freshly anodized Ag/AgCl (in DCM) or lithium metal (in battery electrolyte) as reference electrodes. Oxidation potentials are reported relative to ferrocenium/ferrocene) (Cp2Fe^+/0) in DCM or to Li^+/0 in battery electrolyte. Voltammograms were recorded at a scan rate of 100 mV/s. To determine diffusion coefficients, voltammograms were recorded at variable rates between 5 and 500 mV/s at analyte concentration of 80 mM in 1.2 M LiPF6 in EC/EMC and 10 mM in 0.5 M LiBF4 in PC.

[3] = Solubility / miscibility in battery electrolyte and organic solvents; assay type: physicochemical; details: for Concentration corresponding to 50 wt. % miscibility: 1.2 M LiPF6 in EC/EMC (3:7 wt. ratio)
Description: The compounds of the present invention can be prepared by deprotonation of phenothiazine and a subsequent SN2 reaction with a corresponding alkyl halide. This process has produced MEPT and MEEPT in good yields. The compounds were isolated as colorless oils that were miscible with a variety of organic solvents. Both derivatives were miscible up to 50 wt. % in the common battery electrolyte, 1.2 M LiPF6 in ethylene carbonate/ethyl methyl carbonate (EC/EMC, 3:7 wt. ratio) (Table 1), which corresponds to a concentration of ca. 2 M. In contrast, the solubility of EPT is limited to 0.1 M in the same electrolyte.
Next, to evaluate MEPT and MEEPT as cathode candidates for RFBs, the performance of the redox-active species over multiple charge and discharge cycles was analyzed, albeit in a static environment, using galvanostatic cycling in MEPT/Li and MEEPT/Li coin cells. Here we employed the electrolyte 0.5 M LiBF4 in PC in which both MEPT and MEEPT are miscible at as high as 50 wt. % (Table 1). The positive electrode was composed of graphite felt soaked in catholyte consisting of 10 mM active species in 0.5 M LiBF4 in PC, and Li metal was employed as the negative electrode. The electrodes were separated by a lithiated Nafion membrane. The coin cells were cycled between 3.2 and 3.8 V at a rate of C/5 up to 100% SOC so that the first oxidation would be accessed. The theoretical capacities of EPT, MEPT, and MEEPT are 118 mAh/g, 104 mAh/g, and 89 mAh/g, respectively. The charge and discharge plateaus occur in accordance with the potentials determined by CV; they represent the formation and reversible reduction of the respective radical cations. […] The gap between the charge and discharge capacities may result from crossover of the charged species. […] EPT, MEPT, and MEEPT retained ca. 76%, 68% and 67%, respectively, of the original charge capacity after 30 cycles, over which time the coulombic efficiencies for all three catholytes stabilized at ca. 90%.

[4] = Radical cation stability by UV-vis absorption spectroscopy; assay type: physicochemical; details: 0.167 mM radical cation in DCM, oxidation with TBPA-SbCl6, monitored 5 h
Description: The stability of the radical cation—typically the more reactive form of the electro-active material—can be monitored using UV-vis absorption spectroscopy as these species absorb light in the visible region. This method has proven to be useful for the evaluation of redox shuttle candidates for overcharge protection in LIBs, another application in which the radical cation is involved in electron transfer. The stability of the EPT, MEPT, and MEEPT radical cations were compared in dilute dichloromethane solutions after generation through chemical oxidation with tris(4-bromophenyl)aminium hexachloroantimonate (TBPA-SbCl6).
UV-vis spectra were collected using optical glass cuvettes (Starna) with 1 cm path length with an Agilent 8453 diode array spectrometer. Radical cations were generated in anhydrous DCM by the addition of a 1 mL DCM solution of 0.50 mM TBPA-SbCl6 to a 2 mL DCM solution containing 2.5 mM analyte to produce a final solution containing 0.17 mM radical cation with 1.7 mM analyte, which generates 0.17 mM analyte radical cation with a 9-fold excess of neutral analyte. The cuvettes were capped, and spectra were collected for 5 h.

[5] = Cyclic voltammetry, half-wave oxidation potentials; assay type: physicochemical; details: for E1/2^+/0 vs. Cp2Fe^+/0 in TBA-PF6 in DCM: 80 mM analyte in 100 mM TBA-PF6/DCM, 100 mV/s scan rate; for E1/2^+/0 vs. Li^+/0, LiPF6 in EC/EMC: 80 mM analyte in 1.2M LiPF6 in EC/EMC (3:7 wt. ratio), 100 mV/s
[6] = carbonate-based electrolytes; cited from earlier work
[7] = Cyclic voltammetry at variable scan rates, diffusion coefficients; assay type: physicochemical; details: for Diffusion Coefficient, neutral, TBA-PF6 in DCM / Diffusion Coefficient, oxidized, TBA-PF6 in DCM: 10 mM analyte in 100 mM TBA-PF6/DCM, 10 to 200 mV/s; for Diffusion Coefficient, neutral, LiBF4 in PC / Diffusion Coefficient, oxidized, LiBF4 in PC: 10 mM analyte in 0.5M LiBF4/PC; for Diffusion Coefficient, neutral, LiBF4 in PC / Diffusion Coefficient, neutral, LiPF6 in EC/EMC / Diffusion Coefficient, oxidized, LiBF4 in PC / Diffusion Coefficient, oxidized, LiPF6 in EC/EMC: 5 to 500 mV/s; for Diffusion Coefficient, neutral, LiPF6 in EC/EMC / Diffusion Coefficient, oxidized, LiPF6 in EC/EMC: 80 mM analyte in 1.2M LiPF6 in EC/EMC (3:7)
Description: MEPT and MEEPT were subjected to CV experiments at variable scan rates in the carbonate-based electrolytes and DCM to determine their diffusion coefficients (FIG. 2, 8). At 80 mM, MEPT and MEEPT diffuse more slowly than EPT. This observation can be explained by the interaction of MEPT and MEEPT with a lithium ion from the electrolyte, which increases the size/molecular weight of the shuttle. Because the additional oxygen in MEEPT enhances the ability for Li^+ chelation, this effect is posited to be responsible for the further reduction in its diffusion rate.
as §1

Row | Structure (SMILES) | Solubility in organic solvents and electrolytes ([1]; organic solvents and electrolytes) | E1/2^+/0 vs. Li^+/0, LiBF4 in PC [2] | Solubility in organic solvents ([1]; organic solvents) | Solubility 0.5M LiBF4 in PC ([3]; 0.5 M LiBF4 in PC) | Radical cation stability, change of absorption spectra [4] | E1/2^+/0 vs. Cp2Fe^+/0 in TBA-PF6 in DCM [5] | E1/2^+/0 vs. Li^+/0, LiPF6 in EC/EMC [5] | Oxidation potential vs. Li^+/0 [6] | Diffusion Coefficient, neutral, TBA-PF6 in DCM [7] | Diffusion Coefficient, neutral, LiBF4 in PC [7] | Diffusion Coefficient, neutral, LiPF6 in EC/EMC [7] | Diffusion Coefficient, oxidized, TBA-PF6 in DCM [7] | Diffusion Coefficient, oxidized, LiBF4 in PC [7] | Diffusion Coefficient, oxidized, LiPF6 in EC/EMC [7] | Oxidation potential higher than EPT, LiPF6/EC/EMC [2] | Oxidation potential higher than EPT, TBA-PF6/DCM [2] | Concentration corresponding to 50 wt. % miscibility [3]
1 | CCN1c2ccc(C(F)(F)F)cc2Sc2cc(C(F)(F)F)ccc21 [BCF3EPT, 3,7-bis(trifluoromethyl)-N-ethylphenothiazine] | 1500 to 2000 mM | – | – | – | – | – | – | – | – | – | – | – | – | – | – | – | –
2 | CCN1c2ccccc2Sc2ccccc21 [EPT, N-ethylphenothiazine, reference compound] | – | 3.60 V | ca. 0.1 M | ≤ 0.1M | remain almost unchanged | 0.27 V | 3.51 V | ca. 3.5 V | 3.9 ×10^−6 cm^2s^−1 | 1.5 ×10^−6 cm^2s^−1 | 1.0 ×10^−6 cm^2s^−1 | 2.4 ×10^−6 cm^2s^−1 | 1.4 ×10^−6 cm^2s^−1 | 0.7 ×10^−6 cm^2s^−1 | – | – | –
3 | COCCOCCN1c2ccccc2Sc2ccccc21 [MEEPT, N-[2-(2-methoxyethoxy)ethyl]phenothiazine] | – | 3.64 V | – | – | remain almost unchanged | 0.29 V | 3.60 V | – | 2.5 ×10^−6 cm^2s^−1 | 0.7, 0.7 ×10^−6 cm^2s^−1 | 0.2 ×10^−6 cm^2s^−1 | 1.6 ×10^−6 cm^2s^−1 | 0.7, 0.7 ×10^−6 cm^2s^−1 | 0.1 ×10^−6 cm^2s^−1 | 0.09 V | 0.02 V | ca. 2 M
4 | COCCN1c2ccccc2Sc2ccccc21 [MEPT, N-(2-methoxyethyl)phenothiazine] | – | 3.64 V | – | – | remain almost unchanged | 0.30 V | 3.56 V | – | 3.7 ×10^−6 cm^2s^−1 | 1.1 ×10^−6 cm^2s^−1 | 0.4 ×10^−6 cm^2s^−1 | 2.6 ×10^−6 cm^2s^−1 | 1.0 ×10^−6 cm^2s^−1 | 0.2 ×10^−6 cm^2s^−1 | 0.06 V | 0.03 V | ca. 2 M
